# Test results from US8575091B1, “Amylin analogues and pharmaceutical compositions thereof” (Novo Nordisk A/S, priority 2012, dated 2013).
# Numbered stars: 1 amine (or outer) side, 2 acyl side, 3 side chain; on linkers, the order of the positions; unused ones are H or OH. Bridge positions count the residues as written; N and C are the ends. Side chains are listed from the residue outwards. Peptide text beside a SMILES is read from it. * marks the point of attachment. C20 diacid = O=C(O)CCCCCCCCCCCCCCCCCCC(=O)*; γGlu = O=C(O)[C@H](CCC(=O)[*:2])N[*:1]
# Columns and labels:
# [1] = molecular target: T1, human amylin receptor (amylin 3(a) receptor: human calcitonin receptor + RAMP-3) (Homo sapiens, UniProt O60896+P30988); test: Assay (II)a functional assay, human amylin receptor (CRE luciferase, BHK cells); assay type: cell-based; settings: for EC50: functional assay, human amylin receptor, read-out: hAmylin-R funct. EC50
# T1 construct: expressed in transfected cells
# T1 sequence (P30988 25-474): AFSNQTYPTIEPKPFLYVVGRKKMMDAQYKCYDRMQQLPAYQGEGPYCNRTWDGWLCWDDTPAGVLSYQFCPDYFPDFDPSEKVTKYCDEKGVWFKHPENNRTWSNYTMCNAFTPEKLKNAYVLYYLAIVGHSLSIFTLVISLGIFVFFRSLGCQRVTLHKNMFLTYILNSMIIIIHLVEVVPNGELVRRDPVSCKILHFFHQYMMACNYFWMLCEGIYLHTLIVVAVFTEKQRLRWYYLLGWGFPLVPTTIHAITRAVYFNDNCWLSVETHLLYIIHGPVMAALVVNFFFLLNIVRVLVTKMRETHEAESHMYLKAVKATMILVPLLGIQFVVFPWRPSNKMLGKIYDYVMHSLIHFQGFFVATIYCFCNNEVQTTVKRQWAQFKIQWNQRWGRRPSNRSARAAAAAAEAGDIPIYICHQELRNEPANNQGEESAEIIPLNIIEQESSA
# T1 sequence (O60896 24-148 partner): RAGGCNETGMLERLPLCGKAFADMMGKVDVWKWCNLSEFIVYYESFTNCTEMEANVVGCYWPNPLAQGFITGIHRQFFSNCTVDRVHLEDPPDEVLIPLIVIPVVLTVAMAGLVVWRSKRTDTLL
# [2] = molecular target: T2, human calcitonin receptor (Homo sapiens, UniProt P30988); test: Assay (II)a functional assay, human calcitonin receptor (CRE luciferase, BHK cells);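 also: luminescence from a CRE-driven luciferase reporter, read by single photon counting after cells were exposed to test samples for 3 h at 37 °C under 5% CO2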; assay type: cell-based; settings: read-out: hCTR funct. EC50
# T2 construct: expressed in transfected cells
# T2 sequence (P30988 25-474): T1 sequence (P30988 25-474)
# human amylin receptor = molecular target: T3, human amylin receptor (Homo sapiens, UniProt O60896+P30988); test: Assay (V) binding to the human amylin receptor (SPA, 125I-rat amylin); settings: for IC50: human amylin receptor membranes, SPA, read-out: hAmylin-R bind IC50
# T3 construct: expressed in transfected cells
# T3 sequence (P30988 25-474): T1 sequence (P30988 25-474)
# T3 sequence (O60896 24-148 partner): T1 sequence (O60896 24-148 partner)
# Method in brief: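 IC50, taken as receptor affinity, came from one-site binding competition analysis of scintillation proximity counts. Amylin 3(a)/CRE-luc cell membranes (35 ng/μL final) were mixed with SPA beads (0.05 mg/well) in 50 mM Hepes pH 7.4 containing CaCl2, MgCl2, 0.1% OA and 0.02% Tween20.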
# [3] = molecular target: T2, human calcitonin receptor; test: Assay (VII) binding to the human calcitonin receptor (SPA, 125I-Calcitonin); settings: read-out: hCTR bind IC50;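 also: cell membranes coupled to SPA beads, competitive displacement read by scintillation counting, IC50 derived from a one-site competition fit as a measure of receptor affinity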
# Sprague-Dawley rats = test: Assay (XI) single subcutaneous administration, food intake monitored for 48 hours in rats; assay type: in vivo, rat; settings: single subcutaneous 30 nmol/kg
# Procedure: Assay (XI)—Effect from Single Subcutaneous Administration of Analogue on […] in Rats
# Male Sprague-Dawley rats (Taconic Europe, ˜250 g at test date) were acclimatized to reversed day light cycle (lights on from 10 PM to 10 AM) and single housing in online food intake monitoring system (Ellegaard MBRose, Denmark) prior to study start. Rats were divided in groups of five and subcutaneously dosed with test compound (30 nmol/kg) and food intake was monitored for 48 hours hereafter. Data are illustrated in graphs as mean±SEM.
# Wistar rats = test: Assay (XII) single subcutaneous administration, plasma calcium in rats; assay type: in vivo, rat; settings: for Plasma calcium red (%) 0-12 h: single s.c., maximal reduction 0-12 h, compared to vehicle; for suppression of plasma calcium level relative to vehicle: single subcutaneous, over 24 hours
# Method in brief: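 Male Wistar rats (~250 g), groups of five, received a single subcutaneous dose at time 0. Blood drawn at −15 min, 1, 2, 4, 7, 12 and 24 h; total calcium measured in heparin plasma, reported as mean±SEM.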
# [4] = Table 6, human functional selectivity (hCTR EC50 / hAmylin-R EC50)
# [5] = Table 6a, human functional selectivity (hCTR EC50 / hAmylin-R EC50), at least 5
# [6] = Table 6i, hCTR funct. EC50 / hAmylin-R funct. EC50
# [7] = Table 6j, hCTR funct. EC50 / hAmylin-R funct. EC50
# [8] = Table 6k, hCTR funct. EC50 / hAmylin-R funct. EC50
"Ratio hCT/hAmylin funct. [1, 4]","Ratio hCT/hAmylin funct. [1, 5]","Ratio hCT/hAmylin funct. [1, 6]","Ratio hCT/hAmylin funct. [1, 7]","Ratio hCT/hAmylin funct. [1, 8]",EC50 [1] [nM],EC50 [2] [nM],IC50 (human amylin receptor) [nM],IC50 [3] [nM],"Ratio hCT/hAmylin binding (human amylin receptor; Table 7b, human calcitonin receptor binding IC50 divided by human amylin receptor binding IC50)","Ratio hCT/hAmylin binding (human amylin receptor; Table 7c, human calcitonin receptor binding IC50 divided by human amylin receptor binding IC50)","Ratio hCT/hAmylin binding (human amylin receptor; human binding ratio, included for comparison)",SMILES,food intake monitored over 48 hours versus vehicle (Sprague-Dawley rats),Plasma calcium red (%) 0-12 h (Wistar rats; 30 nmol/kg) [%],suppression of plasma calcium level relative to vehicle (Wistar rats; 30 nmol/kg),suppression of plasma calcium level relative to vehicle (Wistar rats; 1000 nmol/kg),suppression of plasma calcium level relative to vehicle (Wistar rats; increasing doses (all doses tested)),Plasma calcium red (%) 0-12 h (Wistar rats; 3 nmol/kg) [%],suppression of plasma calcium level relative to vehicle (Wistar rats; 3 nmol/kg),suppression of plasma calcium level relative to vehicle (Wistar rats; 100 and 300 nmol/kg)
17.0,17.0,17.0,17.0,17.0,0.376,6.38,0.163,6.3,–,–,–,CC[C@H](C)[C@H](NC(=O)[C@H](C)NC(=O)CNC(=O)[C@H](Cc1ccccc1)NC(=O)[C@H](CC(N)=O)NC(=O)[C@@H]1CCCN1C(=O)[C@H](CO)NC(=O)[C@H](CO)NC(=O)[C@H](Cc1c[nH]cn1)NC(=O)[C@H](CCCNC(=N)N)NC(=O)[C@H](CC(C)C)NC(=O)[C@H](Cc1ccccc1)NC(=O)[C@H](CCC(=O)O)NC(=O)[C@H](C)NC(=O)[C@H](CC(C)C)NC(=O)[C@H](CCCNC(=N)N)NC(=O)[C@H](CCC(N)=O)NC(=O)[C@@H](NC(=O)[C@H](C)NC(=O)[C@@H]1CSSC[C@H](NC(=O)[C@@H](N)CCCCNC(=O)CC[C@H](NC(=O)CCCCCCCCCCCCCCCCCCC(=O)O)C(=O)O)C(=O)N[C@@H](CC(N)=O)C(=O)N[C@@H]([C@@H](C)O)C(=O)N[C@@H](C)C(=O)N[C@@H]([C@@H](C)O)C(=O)N1)[C@@H](C)O)C(=O)N1CCC[C@H]1C(=O)N[C@@H](CO)C(=O)N[C@@H](CO)C(=O)N[C@H](C(=O)N[C@@H](CC(N)=O)C(=O)N[C@H](C(=O)NCC(=O)N1CCC[C@H]1C(=O)N[C@@H](CCCNC(=N)N)C(=O)N[C@H](C(=O)N[C@@H](Cc1ccc(O)cc1)C(N)=O)[C@@H](C)O)C(C)C)[C@@H](C)O [Example 117] (H-K([γGlu-C20 diacid])CNTATCATQRLAEFLRHSSPNFGAIPSSTNVGPRTY-NH2; disulfide 2-7),reduces food intake in rats,9,None of the example compounds at 30 nmol/kg trigger a notable suppression of the calcium level,–,–,–,–,–
–,–,–,–,–,–,–,–,–,28.0,28.0,28.0,CC[C@H](C)[C@H](NC(=O)[C@H](C)NC(=O)CNC(=O)[C@H](Cc1ccccc1)NC(=O)[C@H](CC(N)=O)NC(=O)[C@@H]1CCCN1C(=O)[C@H](CO)NC(=O)[C@H](CO)NC(=O)[C@H](Cc1c[nH]cn1)NC(=O)[C@H](CCCNC(=N)N)NC(=O)[C@H](CC(C)C)NC(=O)[C@H](Cc1ccccc1)NC(=O)[C@H](CCC(=O)O)NC(=O)[C@H](C)NC(=O)[C@H](CC(C)C)NC(=O)[C@H](CCCNC(=N)N)NC(=O)[C@H](CCC(N)=O)NC(=O)[C@@H](NC(=O)[C@H](C)NC(=O)[C@@H]1CSSC[C@H](NC(=O)[C@@H](N)CCCCNC(=O)CC[C@H](NC(=O)CC[C@H](NC(=O)CCCCCCCCCCCCCCCCCCC(=O)O)C(=O)O)C(=O)O)C(=O)N[C@@H](CC(N)=O)C(=O)N[C@@H]([C@@H](C)O)C(=O)N[C@@H](C)C(=O)N[C@@H]([C@@H](C)O)C(=O)N1)[C@@H](C)O)C(=O)N1CCC[C@H]1C(=O)N[C@@H](CO)C(=O)N[C@@H](CO)C(=O)N[C@H](C(=O)N[C@@H](CC(N)=O)C(=O)N[C@H](C(=O)NCC(=O)N[C@@H](CO)C(=O)N[C@@H](CCCNC(=N)N)C(=O)N[C@H](C(=O)N[C@@H](Cc1ccc(O)cc1)C(N)=O)[C@@H](C)O)C(C)C)[C@@H](C)O [Example 89] (H-K([γGlu-γGlu-C20 diacid])CNTATCATQRLAEFLRHSSPNFGAIPSSTNVGSRTY-NH2; disulfide 2-7 (inferred); N-terminus and C-terminus assumed),reduce food intake in rats,7,None of the example compounds at 30 nmol/kg trigger a notable suppression of the calcium level,more pronounced suppression of the calcium level,–,–,–,–
–,–,–,–,–,0.34,14.1,0.697,56.9,–,–,–,"CC[C@H](C)[C@H](NC(=O)[C@H](C)NC(=O)CNC(=O)[C@H](Cc1ccccc1)NC(=O)[C@H](CC(N)=O)NC(=O)[C@@H]1CCCN1C(=O)[C@H](CO)NC(=O)[C@H](CO)NC(=O)[C@H](Cc1c[nH]cn1)NC(=O)[C@H](CCCNC(=N)N)NC(=O)[C@H](CC(C)C)NC(=O)[C@H](Cc1ccccc1)NC(=O)[C@H](CC(=O)O)NC(=O)[C@H](C)NC(=O)[C@H](CC(C)C)NC(=O)[C@H](CCCNC(=N)N)NC(=O)[C@H](CCC(N)=O)NC(=O)[C@@H](NC(=O)[C@H](C)NC(=O)[C@@H]1CSSC[C@H](NC(=O)[C@@H](N)CCCCNC(=O)CC[C@H](NC(=O)CC[C@H](NC(=O)CCCCCCCCCCCCCCCCCCC(=O)O)C(=O)O)C(=O)O)C(=O)N[C@@H](CC(N)=O)C(=O)N[C@@H]([C@@H](C)O)C(=O)N[C@@H](C)C(=O)N[C@@H]([C@@H](C)O)C(=O)N1)[C@@H](C)O)C(=O)N1CCC[C@H]1C(=O)N[C@@H](CO)C(=O)N[C@@H](CO)C(=O)N[C@H](C(=O)N[C@@H](CC(N)=O)C(=O)N[C@H](C(=O)NCC(=O)N[C@@H](CO)C(=O)N[C@@H](CCCNC(=N)N)C(=O)N[C@H](C(=O)N[C@@H](Cc1ccc(O)cc1)C(N)=O)[C@@H](C)O)C(C)C)[C@@H](C)O [Example 52, N-ε-1-{(S)-4-carboxy-4-[(S)-4-carboxy-4-(19-carboxynonadecanoylamino)butyrylamino]butyryl}-[Asp14,Arg17,Pro21,Pro27,Arg35]-human amylin]",reduces food intake in rats,12,–,–,None of the doses trigger a notable suppression of the calcium level,–,–,–
5.2,5.2,5.2,5.2,5.2,0.161,0.841,0.14,1.86,–,–,–,CC[C@H](C)[C@H](NC(=O)[C@H](C)NC(=O)CNC(=O)[C@H](Cc1ccccc1)NC(=O)[C@H](CC(N)=O)NC(=O)[C@@H]1CCCN1C(=O)[C@H](CO)NC(=O)[C@H](CO)NC(=O)[C@H](Cc1c[nH]cn1)NC(=O)[C@H](CCCNC(=N)N)NC(=O)[C@H](CC(C)C)NC(=O)[C@H](Cc1ccccc1)NC(=O)[C@H](CCC(=O)O)NC(=O)[C@H](C)NC(=O)[C@H](CC(C)C)NC(=O)[C@H](CCCNC(=N)N)NC(=O)[C@H](CCC(N)=O)NC(=O)[C@@H](NC(=O)[C@H](C)NC(=O)[C@@H]1CSSC[C@H](NC(=O)[C@@H](N)CCCCNC(=O)CC[C@H](NC(=O)CCCCCCCCCCCCCCCCCCC(=O)O)C(=O)O)C(=O)N[C@@H](CC(N)=O)C(=O)N[C@@H]([C@@H](C)O)C(=O)N[C@@H](C)C(=O)N[C@@H]([C@@H](C)O)C(=O)N1)[C@@H](C)O)C(=O)N1CCC[C@H]1C(=O)N[C@@H](CO)C(=O)N[C@@H](CO)C(=O)N[C@H](C(=O)N[C@@H](CC(N)=O)C(=O)N[C@H](C(=O)NCC(=O)N1CCC[C@H]1C(=O)N[C@@H](CCC(=O)O)C(=O)N[C@H](C(=O)N[C@@H](Cc1ccc(O)cc1)C(N)=O)[C@@H](C)O)C(C)C)[C@@H](C)O [Example 109] (H-K([γGlu-C20 diacid])CNTATCATQRLAEFLRHSSPNFGAIPSSTNVGPETY-NH2; disulfide 2-7),reduces food intake in rats,27,minor suppression of the calcium level,–,–,7,does not trigger a notable suppression of the calcium level,more pronounced suppression of the calcium level
